We go through 14 compounds from patent EP2527323A1, “Urea carbonyl disulfide derivatives and their therapeutic uses” (NOSCIRA, S.A., priority 2011, dated 2012).

In assay [1] the test system is Ser-396 residue of Tau protein in human neuroblastoma SH-SY5Y cells. The experiment in a line: Cellular assay: phosphorylation at Ser-396 of Tau protein (ELISA). The assay is classed as cell-based. Conditions: 18 h incubation at 37°C, 1% DMSO, normalized to untreated cells, read-out: pS*er396-Tau average EC50. On the procedure: The effect of the compound in cells is determined by monitoring the level of phosphorylation at the Ser-396 residue of Tau protein in human neuroblastoma SH-SY5Y cells. Cells are grown in 96-well plates: 30,000 cells per well in a volume of 100 µl of 1:1 MEM:Ham's F12 medium including 10% (v/v) fetal bovine serum, 100 U/ml penicillin, 100 µg/ml streptomycin and 1% (v/v) 100-fold concentrated commercial stock of non-essential aminoacids (Gibco, Carlsbad, CA, USA), and incubated at 37°C during 24 h. Then, the corresponding amount of test compound is added to the wells to reach the desired concentration in 1% (v/v) DMSO. The system is incubated at 37°C during 18 h and afterwards cells are harvested, washed with phosphate buffer saline and incubated during 30 min on ice with 120 µl per well of "lysis buffer" (10 mM Tris-HCl pH 7.4, 100 mM NaCl, 1 mM EDTA, 2 mM sodium orthovanadate, 1% (v/v) Triton X-100, 10% (v/v) glycerol, 0.1% (w/v) sodium dodecyl sulfate, 0.5 % (w/v) sodium deoxycholate, 4% (v/v) 25-fold concentrated commercial stock of protease inhibitors (Roche, Basel, Switzerland) and 1 mM phenylmethylsulfonyl fluoride). 60 µl of this mixture is then placed in an empty 96-well plate and the levels of Ser-396 phosphorylation are determined using a commercial ELISA kit (Biosource, Carlsbad, CA, USA), following manufacturer's instructions. The levels of phosphorylation are expressed as percentage values, after normalizing them to those in untreated cells and those values are used to calculate EC50s, as described above for GSK-3.

The target in another assay is T1, human recombinant GSK3β (Homo sapiens, UniProt P49841).
T1 construct: 6His (N); purchased Millipore (Billerica, MA, USA)
The experiment in a line: GSK-3β assay (Z'-LYTE FRET enzymatic activity). The assay is classed as biochemical. Particulars: 2 nM enzyme (N-terminal 6His-tagged, H350L mutation), 12.5 µM ATP, 2 µM Ser/Thr 9 peptide, 60 min at room temperature, 1% DMSO; read-out: GSK3β inhibition average EC50. As to the method:
The enzymatic activity of GSK3β was determined with a commercial system based on the Z'-LYTE® technology, available from Invitrogen Life Technologies (Carlsbad, CA, USA), using human recombinant GSK3β (N-terminal 6His-tagged recombinant enzyme with an H350L mutation) from Millipore (Billerica, MA, USA) as the enzyme source. This technology utilizes the fluorescence resonance energy transfer ("FRET") process between fluorescein and coumarin. The assay principle is based on the differential sensitivity of phosphorylated and non-phosphorylated peptide to proteolytic cleavage, which precludes the energy transfer process between the two fluorophores attached to both sides of the cleavage site. […] The latter is a synthetic peptide, provided by Invitrogen under the commercial name "Ser/Thr 9 peptide", and it is based upon the sequence of a GSK3β substrate protein (glycogen synthase I) containing Ser-641. The peptide is labeled at both ends with fluorescein and coumarin. The assay is carried out in the presence of different concentrations of the tested compound, at a final 1% (v/v) DMSO concentration. After a 60 min incubation at room temperature, 5 µl of a commercial protease solution (sold by the same vendor in the assay kit) is added and a subsequent 1h incubation at room temperature is performed, before adding 5 µl of a suitable "stop solution", also provided by the vendor in the kit. After that, fluorescence intensity is recorded, monitoring emission at both 445 and 520 nm, upon excitation at 400 nm. An emission ratio is finally calculated, using the quotient among the emission at 445 nm divided by that at 520 nm.
The emission ratio of each tested sample is normalized to that of the control wells, so that for every compound concentration the percentage of inhibition is calculated by using the following equation: % Inhibition = 100⋅(E-S)/(E-B) [formula] wherein "S" is the emission ratio of the sample being considered, "E" is the average emission ratio of wells, including enzyme in the absence of inhibitors, and "B" is the average emission ratio of wells without enzyme. The inhibition values obtained at every compound concentration are finally used to calculate the EC50 of the tested compound, this parameter being the concentration of the compound which causes 50% of inhibition. For that purpose, the data were fitted to a classical 4-parameters isotherm equation using the nonlinear regression function of GraphPad™ Prism 5.0 (GraphPad Software Inc.). Such equation is described below: % Inhibition = L + (H-L)/(1 + (((EC50)/(C)))^n) [formula] wherein "L" is the lower asymptote of the theoretical sigmoidal curve, "H" is the higher asymptote, "C" is the concentration of compound and "n" is the Hill coefficient.

Each structure is given as a SMILES string.

T1 sequence (P49841 whole entry): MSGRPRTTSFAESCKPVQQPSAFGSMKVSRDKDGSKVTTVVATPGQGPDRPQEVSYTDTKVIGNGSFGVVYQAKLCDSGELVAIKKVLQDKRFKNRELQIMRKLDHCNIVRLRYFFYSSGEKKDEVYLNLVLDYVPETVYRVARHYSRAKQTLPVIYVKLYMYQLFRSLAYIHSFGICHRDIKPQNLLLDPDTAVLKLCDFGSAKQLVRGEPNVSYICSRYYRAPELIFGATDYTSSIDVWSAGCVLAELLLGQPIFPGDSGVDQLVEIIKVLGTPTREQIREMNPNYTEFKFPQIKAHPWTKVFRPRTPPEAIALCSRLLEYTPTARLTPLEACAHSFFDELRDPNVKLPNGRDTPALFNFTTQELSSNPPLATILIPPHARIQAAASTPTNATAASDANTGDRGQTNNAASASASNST

`O=C(Nc1cccc2ccccc12)N(Cc1ccccc1)C(=O)SSCCc1ccccc1` [Compound 4, 1-Benzyl-1-(5-phenyl-pentan-2,3-dithia-1-oyl)-3-naphthalen-1-yl-urea]: the EC50 – broadly, the concentration giving half of the maximal effect – in assay [1] was determined as 6610 nM; at human recombinant GSK3β, 58 nM.

In the case of `CCN(CC)C(=O)N(C(=O)SSCc1ccccc1)c1cc(F)cc(F)c1` [Compound 12], the EC50 at human recombinant GSK3β was determined as 8320 nM.

As for `CCCCCSSC(=O)N(Cc1ccccc1)C(=O)NCc1ccccc1` [Compound 10, 1,3-Dibenzyl-1-(octan-2,3-dithia-1-oyl)-urea], the values for the EC50 (in assay [1]; at human recombinant GSK3β) were 7080 nM and 295 nM, respectively.

As for `O=C(Nc1cccc2ccccc12)N(Cc1ccccc1)C(=O)SSCc1ccccc1` [Compound 6, 1-Benzyl-3-naphthalen-1-yl-1-(4-phenyl-butyr-2,3-dithia-1-oyl)-urea], the figures for the EC50 (in assay [1]; on human recombinant GSK3β) were 6760 nM and 229 nM, respectively.

Turning to `CCCCSSC(=O)N(Cc1ccccc1)C(=O)Nc1cccc2ccccc12` [Compound 2, 1-Benzyl-1-heptan-2,3-dithia-1-oyl-3-naphthalen-1-yl-urea], the EC50 at human recombinant GSK3β is 66 nM.

With `O=C(Nc1cccc2ccccc12)N(Cc1ccccc1)C(=O)SS` [Compound 15, Benzyl-(N-Naphthalen-1-yl-formamide)-carbamoyl sodium dithioperoxol], the EC50 at human recombinant GSK3β is 1660 nM.

Consider `COC(=O)C(CSSC(=O)N(Cc1ccccc1)C(=O)Nc1cccc2ccccc12)NC(C)=O` (centres unmarked) [Compound 11, 2-Acetylamino-6-(1-benzyl-3-naphthalen-1-yl-ureido)-4-5-dithia-6-oxo-hexanoic acid methyl ester], for which the EC50 at human recombinant GSK3β is 104 nM.

On to `C=CCSSC(=O)N(Cc1ccccc1)C(=O)Nc1cccc2ccccc12` [Compound 1, 1-Benzyl-1-hex-2,3-dithia-5-enoyl-3-naphthalen-1-yl-urea], for which the EC50 at human recombinant GSK3β worked out at 708 nM.

Turning to `CC(C)C(C)SSC(=O)N(Cc1ccccc1)C(=O)Nc1cccc2ccccc12` (centres unmarked) [Compound 3, 1-Benzyl-1-(4,5 dimethy-hexan-2,3-dithia-1-oyl)-3-naphthalen-1-yl-urea], the concentration for a half-maximal effect (EC50) on human recombinant GSK3β is 161 nM.

As for `CCSSC(=O)N(C(=O)N(C)C)c1cccc(C(F)(F)F)c1` [Compound 13], the EC50 at human recombinant GSK3β was determined as 339 nM.

Regarding `O=C(Nc1ccc2c(c1)OCO2)N(Cc1ccccc1)C(=O)SSC1CCCC1` [Compound 7, 3-Benzo[1,3]dioxol-5-yl-1-benzyl-1-(1-propion-2,3-dithia-3-cyclopentyl-1-yl)-urea], the EC50 on human recombinant GSK3β stood at 82 nM.

Turning to `CCOC(=O)CNC(=O)N(CC(=O)OCC)C(=O)SSCCc1ccccc1` [Compound 8, [3-Ethoxycarbonylmethyl-3-(pentan-2,3-dithia-5-phenyl-1-yl)-ureido]-acetic acid ethyl ester], the EC50 on human recombinant GSK3β was found to be 97 nM.

Consider `CC(C)C(C)SSC(=O)N(Cc1ccccc1)C(=O)Nc1ccc(Oc2ccccc2)cc1` (centres unmarked) [Compound 9, 1-Benzyl-1-(hexan-2,5-dithia-4,5-dimethyl-1-yl)-3-(4-phenoxy-phenyl)-urea], for which the EC50 on human recombinant GSK3β was 35 nM.

`O=C(Nc1cccc2ccccc12)N(Cc1ccccc1)C(=O)SSC1CCCC1` [Compound 5, 1-Benzyl-1-(3-cyclopentyl-propion-2,3-dithia-1-oyl)-3-naphthalen-1-yl-urea]: at human recombinant GSK3β, the EC50 was 125 nM.
